{
  "source": "paper PMC7070908",
  "about": "“Structure-Guided Identification of Black Cohosh (Actaea racemosa) Triterpenoids with In Vitro Activity against Multiple Myeloma” (Molecules, 2020)",
  "key": {"U266 myeloma cell line": {"test_system": "U266 myeloma cell line", "assay": "Cytotoxicity, flow cytometry (AnnexinV/propidium iodide negativity), U266", "type": "cell-based, human", "procedure": "(§1) Induction of apoptosis was measured in myeloma cell lines NCI-H929, OPM-2, and U266 as well as in peripheral blood mononuclear cells (PBMCs) of healthy donors by flow cytometry using established protocols thereby staining the cells with AnnexinV-fluorescein isothiocyanate and propidium iodide. Bortezomib (Eubio, Vienna, Austria) was used as positive control. Cell lines were purchased from DSMZ (Braunschweig, Germany) and routinely fingerprinted and tested for mycoplasma negativity. All cells (cell lines and PBMC) were grown in RPMI-1640 medium (Life Technologies, Paisley, UK) supplemented with 10% fetal calf serum (FCS; PAA, Linz, Austria), L-glutamine 100 µg/mL, and penicillin-streptomycin 100 U/mL. PBMCs from healthy donors were used after obtaining written informed consent at the University Hospital Salzburg (ethics committee approval 415-E/1287/6-2011). Cells were subjected to Ficoll separation (Ficoll PaqueTM) and incubated in RPMI-1640 Media with supplements as above. In brief, 0.5 × 10^6 myeloma cells/mL or similar numbers of PMBCs were incubated for 24 h and 48 h with or without the tested compounds dissolved in dimethyl sulfoxide at different concentrations. At least three analyses in triplicates were performed for each cell line and a solvent control was always included. As a positive control, the proteasome inhibitor bortezomib (BTZ) was used at concentrations of 10 and 5 nM. The extent of non-apoptotic cells (AnnexinV/propidium iodide negativity) was calculated as percentage of viable cells in respect to the untreated control. Data are shown as mean percentage of viable cells and standard error of the mean (SEM) (error bars)."}, "GABA(A)-receptors": {"test_system": "GABA(A)-receptors", "set-up": "method as in PMID 21082802", "details": "cited from earlier work"}, "[1]": {"test_system": "NCI-H929 myeloma cell line", "assay": "Cytotoxicity, flow cytometry (AnnexinV/propidium iodide negativity), NCI-H929", "type": "cell-based, human", "procedure": "as §1"}, "[2]": {"test_system": "doxorubicin-resistant-MCF7 (R-MCF7) cells", "set-up": "method as in PMID 20564500", "details": "doxorubicin-resistant MCF7, 48 h of incubation; cited from earlier work"}, "OPM-2 myeloma cell line": {"test_system": "OPM-2 myeloma cell line", "assay": "Cytotoxicity, flow cytometry (AnnexinV/propidium iodide negativity), OPM-2", "type": "cell-based, human", "procedure": "as §1"}, "[3]": {"test_system": "peripheral blood mononuclear cells (PBMCs) of healthy donors", "assay": "Cytotoxicity, flow cytometry (AnnexinV/propidium iodide negativity), PBMC of healthy donors", "type": "cell-based, human", "procedure": "as §1"}, "MCF7 cells": {"test_system": "MCF7 cells", "set-up": "method as in PMID 20564500", "details": "48 h of incubation; cited from earlier work"}, "[4]": {"test_system": "human squamous cell carcinoma (HSC-2) cells", "set-up": "method as in PMID 11824572", "details": "cited from earlier work"}, "[5]": {"test_system": "normal human gingival fibroblasts (HGF)", "set-up": "method as in PMID 11824572", "details": "cited from earlier work"}, "[6]": {"details": "25 µM, 24 h, % of untreated control, mean ± SEM (Table 1)"}, "[7]": {"details": "25 µM, 48 h, % of untreated control, mean ± SEM (Table 2)"}, "[8]": {"details": "50 µM, 24 h, % of untreated control, mean ± SEM (Table 1)"}, "[9]": {"details": "50 µM, 48 h, % of untreated control, mean ± SEM (Table 2)"}, "[10]": {"details": "12.5 µM, 24 h, second round (Table 3)"}, "[11]": {"details": "25 µM, 24 h, second round (Table 3)"}, "[12]": {"details": "37.5 µM, 24 h, second round (Table 3)"}},
  "data": [
    {"smiles": "CC(=O)OC(CC(C)C1C(=O)C(O)C2(C)C3CCC4C(C)(C)C(OC5OCC(O)C(O)C5O)CCC45CC35CCC12C)C1OC1(C)C", "note": "[Compound 2, 23-O-acetylshengmanol-3-O-β-D-xylopyranoside]", "values": [
      {"measurement": "MM Cells % Alive U266", "setting": "U266 myeloma cell line; [6]", "value": "79.4 ± 20.2", "unit": "%"},
      {"measurement": "MM Cells % Alive U266", "setting": "U266 myeloma cell line; [7]", "value": "90.2 ± 1.7", "unit": "%"},
      {"measurement": "MM Cells % Alive U266", "setting": "U266 myeloma cell line; [8]", "value": "56.3 ± 21.4", "unit": "%"},
      {"measurement": "MM Cells % Alive U266", "setting": "U266 myeloma cell line; [9]", "value": "62.1 ± 0.4", "unit": "%"},
      {"measurement": "effect on GABA(A)-receptors, factor by which it exceeds actein (1) and compound 3", "setting": "GABA(A)-receptors", "value": "> 5"},
      {"measurement": "MM Cells % Alive NCI-H929", "setting": "[1]; [6]", "value": "87.7 ± 4.9", "unit": "%"},
      {"measurement": "MM Cells % Alive NCI-H929", "setting": "[1]; [7]", "value": "63.9 ± 10.6", "unit": "%"},
      {"measurement": "MM Cells % Alive NCI-H929", "setting": "[1]; [8]", "value": "27.9 ± 12.2", "unit": "%"},
      {"measurement": "MM Cells % Alive NCI-H929", "setting": "[1]; [9]", "value": "17.4 ± 7.3", "unit": "%"},
      {"measurement": "IC50 R-MCF7", "setting": "[2]", "value": 60, "unit": "µg/mL"},
      {"measurement": "MM Cells % Alive OPM-2", "setting": "OPM-2 myeloma cell line; [6]", "value": "86.2 ± 8.6", "unit": "%"},
      {"measurement": "MM Cells % Alive OPM-2", "setting": "OPM-2 myeloma cell line; [7]", "value": "84.6 ± 1.0", "unit": "%"},
      {"measurement": "MM Cells % Alive OPM-2", "setting": "OPM-2 myeloma cell line; [8]", "value": "71.0 ± 11.2", "unit": "%"},
      {"measurement": "MM Cells % Alive OPM-2", "setting": "OPM-2 myeloma cell line; [9]", "value": "51.7 ± 8.9", "unit": "%"},
      {"measurement": "PBMC % Alive", "setting": "[3]; [6]", "value": "94.7 ± 1.8", "unit": "%"},
      {"measurement": "PBMC % Alive", "setting": "[3]; [7]", "value": "92.7 ± 1.7", "unit": "%"},
      {"measurement": "PBMC % Alive", "setting": "[3]; [8]", "value": "84.0 ± 3.0", "unit": "%"},
      {"measurement": "PBMC % Alive", "setting": "[3]; [9]", "value": "76.1 ± 2.1", "unit": "%"},
      {"measurement": "IC50 MCF7", "setting": "MCF7 cells", "value": 39, "unit": "µg/mL"}
    ]},
    {"smiles": "COC(C)(C)C1OC23OC1CC(C)C2C1(C)CCC24CC25CCC(OC2OCC(O)C(O)C2O)C(C)(C)C5CCC4C1(C)C3O", "note": "[Compound 7, 25-O-methylcimigenol-3-O-α-L-arabinopyranoside]", "values": [
      {"measurement": "MM Cells % Alive U266", "setting": "U266 myeloma cell line; [10]", "value": "97.0 ± 3.5", "unit": "%"},
      {"measurement": "MM Cells % Alive U266", "setting": "U266 myeloma cell line; [11]", "value": "51.3 ± 11.8", "unit": "%"},
      {"measurement": "MM Cells % Alive U266", "setting": "U266 myeloma cell line; [12]", "value": "5.3 ± 2.8", "unit": "%"},
      {"measurement": "IC50", "setting": "U266 myeloma cell line; Homo sapiens, U-266, 24 h, incubation for 24 h", "value": 16.2, "unit": "µg/mL"},
      {"measurement": "IC50 U266", "setting": "U266 myeloma cell line; incubation for 24 h", "value": 16.1, "unit": "µg/mL"},
      {"measurement": "MM Cells % Alive NCI-H929", "setting": "[1]; [10]", "value": "95.5 ± 1.8", "unit": "%"},
      {"measurement": "MM Cells % Alive NCI-H929", "setting": "[1]; [11]", "value": "34.3 ± 8.0", "unit": "%"},
      {"measurement": "MM Cells % Alive NCI-H929", "setting": "[1]; [12]", "value": "2.5 ± 1.3", "unit": "%"},
      {"measurement": "IC50", "setting": "[1]; Homo sapiens, NCI-H929, 24 h, incubation for 24 h", "value": 14.7, "unit": "µg/mL"},
      {"measurement": "MM Cells % Alive OPM-2", "setting": "OPM-2 myeloma cell line; [10]", "value": "99.8 ± 1.7", "unit": "%"},
      {"measurement": "MM Cells % Alive OPM-2", "setting": "OPM-2 myeloma cell line; [11]", "value": "88.0 ± 4.5", "unit": "%"},
      {"measurement": "MM Cells % Alive OPM-2", "setting": "OPM-2 myeloma cell line; [12]", "value": "31.3 ± 8.6", "unit": "%"},
      {"measurement": "IC50", "setting": "OPM-2 myeloma cell line; Homo sapiens, OPM-2, 24 h, incubation for 24 h", "value": 21.2, "unit": "µg/mL"},
      {"measurement": "cytotoxic effects against HSC-2 cells (in words)", "setting": "[4]", "value": "moderate effects"},
      {"measurement": "PBMC % Alive", "setting": "[3]; [10]", "value": "105.3 ± 0.6", "unit": "%"},
      {"measurement": "PBMC % Alive", "setting": "[3]; [11]", "value": "81.0 ± 8.5", "unit": "%"},
      {"measurement": "PBMC % Alive", "setting": "[3]; [12]", "value": "25.0 ± 6.3", "unit": "%"},
      {"measurement": "IC50", "setting": "[3]; Homo sapiens, PBMC, 24 h, incubation for 24 h", "value": 19.9, "unit": "µg/mL"},
      {"measurement": "cytotoxic effects against HGF (in words)", "setting": "[5]", "value": "moderate effects"}
    ]}
  ]
}
